# Assay results reported in patent US12410195B2, “Pharmaceutical compositions comprising 4-((6bR,10aS)-3-methyl-2,3,6b,9,10,10a-hexahydro-1H-pyrido[3′,4′:4,5]pyrrolo[1,2,3-de]quinoxalin-8(7H)-yl)-1-(4-((6bR,10aS)-3-methyl-2,3,6b,9,10,10a-hexahydro-1H-pyrido[3′,4′:4,5]pyrrolo[1,2,3-de]quinoxalin-8(7H)-yl)phenyl)butan-1-one for treating conditions …” (INTRA-CELLULAR THERAPIES, INC., priority 2019, dated 2025).
# Experiments:
# SERT = SERT (Homo sapiens, UniProt P31645); experiment: Radioligand receptor binding, SERT (antagonist binding); details: radioligand imipramine
# Description: (§1) Receptor binding is determined for the Compounds of Example 1. The following literature procedures are used, each of which reference is incorporated herein by reference in their entireties: 5-HT2A: Bryant, H. U. et al. (1996), Life Sci., 15:1259-1268; D2: Hall, D. A. and Strange, P. G. (1997), Brit. J. Pharmacol., 121:731-736; D1: Zhou, Q. Y. et al. (1990), Nature, 347:76-80; SERT: Park, Y. M. et al. (1999), Anal. Biochem., 269:94-104; Mu opiate receptor: Wang, J. B. et al. (1994), FEBS Lett., 338:217-222.
# (§2) The compound of Example 1 is tested at a concentration of […] in DMSO solution. Compound binding is calculated as the percent inhibition of the binding of a radioactively labeled ligand specific for each target. The control ligands are radiolabeled forms of SCH 23390 (for D1), 7-hydroxy-DPAT (for D2S), racemic DOI (for 5-HT2A and 5-HT2B), veratridine (for sodium channel site 2), protriptyline (for NET) and imipramine (for SERT).
# (§3) In general, the results are expressed as a percent of control specific binding:
# (§4) [formula] and as a percent inhibition of control specific binding:
# (§5) [formula] obtained in the presence of the test compound (compound of Example 1).
# (§6) Further pharmacology studies are conducted to determine IC50 values for receptor binding to the 5-HT2A receptor, D1 receptor, and SERT. For each study, the compound of Example 1 is tested at a range of concentrations and compound binding at each concentration is calculated as the percent inhibition of the binding of a radioactively labeled ligand specific for the target. The control ligands are radiolabeled forms of […], racemic DOI (for 5-HT2A), and imipramine (for SERT). The IC50 value is determined by non-linear regression analysis of the competition curve generated with mean replicate values using Hill Equation curve fitting:
# (§7) [formula] wherein Y is specific binding, A is the left asymptote of the curve, D is the right asymptote of the curve, C is the compound concentration, and nH is the slope factor. Ki values are calculated using the Cheng Prusoff equation: […]
# 5-HT2A receptor = 5-HT2A receptor (Homo sapiens, UniProt P28223); experiment: Radioligand receptor binding, 5-HT2A (agonist binding); details: radioligand racemic DOI
# Description: as §1, §2, §3, §4, §5, §6, §7
# 5-HT2B = 5-HT2B (Homo sapiens, UniProt P41595); experiment: Radioligand receptor binding, 5-HT2B (agonist binding); design: dose or concentration left out as unconfirmed; details: in DMSO solution; radioligand racemic DOI
# Description: as §1, §2, §3, §4, §5
# D2S = D2S (Homo sapiens, UniProt P14416); experiment: Radioligand receptor binding, D2S (agonist binding); details: radioligand 7-hydroxy-DPAT
# Description: as §1, §2, §3, §4, §5, §6, §7
# D1 = D1 (Homo sapiens, UniProt P21728); experiment: Radioligand receptor binding, D1 (antagonist binding); design: dose or concentration left out as unconfirmed; details: in DMSO solution; radioligand SCH 23390
# Description: as §1, §2, §3, §4, §5
# Sodium channel (site 2) = experiment: Radioligand binding, sodium channel site 2 (antagonist binding); details: tested at 1.01.1M in DMSO solution; radioligand veratridine
# Description: as §2, §3, §4, §5
# NET = NET (Homo sapiens, UniProt P23975); experiment: Radioligand binding, NET (antagonist binding); design: dose or concentration left out as unconfirmed; details: tested in DMSO solution; radioligand protriptyline
# Description: as §2, §3, §4, §5
# [1] = tested on: symptoms of emotional experience (negative symptoms of schizophrenia); experiment: Clinical studies in patients with acute exacerbated schizophrenia; format: in vivo, human; details: once daily 60 mg P.O., up to 28 days, two clinical studies
# Text: Social avoidance can be a critical and debilitating symptom in patients suffering from anxiety disorders, especially social anxiety disorder, as well as in patients suffering from traumatic anxiety disorders. Social avoidance is often one of the key determinants of whether a person with a severe anxiety disorder is capable of maintaining familial relationships or employment relationships. […] Negative symptoms of schizophrenia can be divided into two categories: emotional experience (e.g., emotional withdrawal, passive social withdrawal, active social avoidance) and emotional expression (e.g., blunted effect, poor rapport, lack of spontaneity, and motor retardation). […] These are the symptoms that are most highly correlated with interpersonal functioning.
# [2] = tested at 1.01.1M in DMSO solution
# Sequence of D2S (P14416 1-414 isoform P14416-2): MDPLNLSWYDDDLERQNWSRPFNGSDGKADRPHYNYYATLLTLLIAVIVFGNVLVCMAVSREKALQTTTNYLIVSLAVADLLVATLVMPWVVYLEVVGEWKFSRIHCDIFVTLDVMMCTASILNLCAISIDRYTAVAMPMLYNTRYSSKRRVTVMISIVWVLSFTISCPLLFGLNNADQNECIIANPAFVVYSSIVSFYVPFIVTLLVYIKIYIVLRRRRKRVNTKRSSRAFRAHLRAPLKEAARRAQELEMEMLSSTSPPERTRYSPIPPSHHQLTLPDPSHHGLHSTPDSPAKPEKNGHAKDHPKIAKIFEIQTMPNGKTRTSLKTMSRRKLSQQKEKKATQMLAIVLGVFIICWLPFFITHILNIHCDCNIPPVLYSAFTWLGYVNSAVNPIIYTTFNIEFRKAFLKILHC
# Sequence of 5-HT2A receptor (P28223 whole entry): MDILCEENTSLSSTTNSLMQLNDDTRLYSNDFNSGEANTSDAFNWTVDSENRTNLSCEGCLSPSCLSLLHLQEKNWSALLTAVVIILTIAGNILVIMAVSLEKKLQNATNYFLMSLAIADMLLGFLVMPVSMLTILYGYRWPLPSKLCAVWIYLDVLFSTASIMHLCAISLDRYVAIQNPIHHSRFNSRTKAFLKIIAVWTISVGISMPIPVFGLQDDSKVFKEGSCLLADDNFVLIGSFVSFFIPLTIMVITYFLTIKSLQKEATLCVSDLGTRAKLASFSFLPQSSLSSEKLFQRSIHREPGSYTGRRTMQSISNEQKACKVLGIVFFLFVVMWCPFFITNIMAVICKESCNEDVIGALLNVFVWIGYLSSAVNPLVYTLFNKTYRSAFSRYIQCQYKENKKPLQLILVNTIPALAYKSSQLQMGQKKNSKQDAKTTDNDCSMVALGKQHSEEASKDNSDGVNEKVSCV
# Sequence of SERT (P31645 whole entry): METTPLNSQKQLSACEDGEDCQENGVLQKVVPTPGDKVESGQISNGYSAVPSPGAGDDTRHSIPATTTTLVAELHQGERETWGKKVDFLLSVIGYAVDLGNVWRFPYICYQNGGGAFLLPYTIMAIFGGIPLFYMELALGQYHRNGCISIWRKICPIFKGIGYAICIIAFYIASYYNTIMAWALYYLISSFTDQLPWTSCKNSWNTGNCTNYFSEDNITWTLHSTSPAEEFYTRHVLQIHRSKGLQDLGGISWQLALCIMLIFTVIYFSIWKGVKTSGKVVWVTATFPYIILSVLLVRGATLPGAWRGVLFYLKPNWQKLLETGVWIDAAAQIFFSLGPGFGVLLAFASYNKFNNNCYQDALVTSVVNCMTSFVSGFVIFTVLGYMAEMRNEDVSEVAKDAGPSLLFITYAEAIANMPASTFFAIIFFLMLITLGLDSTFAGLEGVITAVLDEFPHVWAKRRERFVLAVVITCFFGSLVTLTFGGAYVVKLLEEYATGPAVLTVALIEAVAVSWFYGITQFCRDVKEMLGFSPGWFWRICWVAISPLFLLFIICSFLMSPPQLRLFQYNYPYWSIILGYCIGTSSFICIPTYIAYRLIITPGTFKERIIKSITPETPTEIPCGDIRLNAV
# Sequence of D1 (P21728 whole entry): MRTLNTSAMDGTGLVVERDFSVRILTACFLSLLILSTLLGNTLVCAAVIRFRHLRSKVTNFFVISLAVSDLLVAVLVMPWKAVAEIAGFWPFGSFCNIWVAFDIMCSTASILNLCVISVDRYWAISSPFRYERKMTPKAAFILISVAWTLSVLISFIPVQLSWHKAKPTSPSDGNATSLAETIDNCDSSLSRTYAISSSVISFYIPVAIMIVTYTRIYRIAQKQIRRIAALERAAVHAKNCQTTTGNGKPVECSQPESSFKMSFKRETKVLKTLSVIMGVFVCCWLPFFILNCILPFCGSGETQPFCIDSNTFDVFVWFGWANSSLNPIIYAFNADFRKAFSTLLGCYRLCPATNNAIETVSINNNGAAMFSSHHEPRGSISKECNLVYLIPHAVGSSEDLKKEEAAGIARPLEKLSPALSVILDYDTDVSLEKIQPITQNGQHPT
# Sequence of NET (P23975 whole entry): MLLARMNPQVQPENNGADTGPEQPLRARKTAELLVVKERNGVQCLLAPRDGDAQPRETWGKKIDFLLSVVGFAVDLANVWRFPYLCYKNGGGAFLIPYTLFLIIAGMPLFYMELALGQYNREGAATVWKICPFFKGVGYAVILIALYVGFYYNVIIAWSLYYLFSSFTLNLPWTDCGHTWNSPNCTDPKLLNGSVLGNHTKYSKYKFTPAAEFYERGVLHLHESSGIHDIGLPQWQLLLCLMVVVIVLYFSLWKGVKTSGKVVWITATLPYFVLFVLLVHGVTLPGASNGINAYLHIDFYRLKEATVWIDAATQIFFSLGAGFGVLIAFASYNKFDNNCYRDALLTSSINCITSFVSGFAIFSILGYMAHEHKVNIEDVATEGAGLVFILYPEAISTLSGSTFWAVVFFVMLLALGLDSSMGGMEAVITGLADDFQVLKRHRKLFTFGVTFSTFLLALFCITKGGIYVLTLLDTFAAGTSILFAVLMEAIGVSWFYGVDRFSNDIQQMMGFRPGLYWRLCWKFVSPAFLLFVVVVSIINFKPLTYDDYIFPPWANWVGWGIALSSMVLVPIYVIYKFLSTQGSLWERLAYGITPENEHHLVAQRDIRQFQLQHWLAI
# Sequence of 5-HT2B (P41595 whole entry): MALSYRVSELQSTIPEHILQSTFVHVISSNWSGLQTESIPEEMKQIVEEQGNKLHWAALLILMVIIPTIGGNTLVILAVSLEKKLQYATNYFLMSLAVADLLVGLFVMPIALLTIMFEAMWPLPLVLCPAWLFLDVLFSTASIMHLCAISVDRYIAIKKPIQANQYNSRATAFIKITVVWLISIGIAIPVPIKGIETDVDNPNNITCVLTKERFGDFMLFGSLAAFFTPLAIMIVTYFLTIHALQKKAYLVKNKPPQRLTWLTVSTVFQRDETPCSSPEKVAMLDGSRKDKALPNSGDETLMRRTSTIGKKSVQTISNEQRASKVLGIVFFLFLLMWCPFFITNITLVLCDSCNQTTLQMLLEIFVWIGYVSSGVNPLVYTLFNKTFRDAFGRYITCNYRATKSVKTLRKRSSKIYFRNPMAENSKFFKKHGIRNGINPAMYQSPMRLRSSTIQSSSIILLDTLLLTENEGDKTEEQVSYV
Compound,Ki (SERT; Cheng Prusoff equation),IC50 (SERT; Hill equation curve fitting),"% inhibition of control specific binding, SERT (antagonist binding) (SERT; [2])",Ki (5-HT2A receptor; Cheng Prusoff equation),IC50 (5-HT2A receptor; Hill equation curve fitting),"% inhibition of control specific binding, 5-HT2A (agonist binding) (5-HT2A receptor; [2])","% inhibition of control specific binding, 5-HT2B (agonist binding) (5-HT2B)",Ki (D2S; Cheng Prusoff equation),IC50 (D2S; Hill equation curve fitting),"% inhibition of control specific binding, D2S (agonist binding) (D2S; [2])","% inhibition of control specific binding, D1 (antagonist binding) (D1)","% inhibition of control specific binding, Sodium channel (site 2 antagonist binding) (Sodium channel (site 2))","% inhibition of control specific binding, NET (antagonist binding) (NET)",symptoms of emotional experience compared to placebo [1]
"CN1CCN2c3c(cccc31)[C@@H]1CN(CCCC(=O)c3ccc(N4CC[C@H]5[C@@H](C4)c4cccc6c4N5CCN6C)cc3)CC[C@@H]12 [Compound 1, 4-((6bR,10aS)-3-methyl-2,3,6b,9,10,10a-hexahydro-1H-pyrido[3′,4′: 4,5]pyrrolo[1,2,3-de]quinoxalin-8(7H)-yl)-1(4-((6bR,10aS)-3-methyl-2,3,6b,9,10,10a-hexahydro-1H-pyrido[3′,4′: 4,5]pyrrolo[1,2,3-de]quinoxalin-8(7H)-yl)phenyl)butan-1-one]",1.3 nM,2.9 nM,99.9%,51 nM,68 nM,90.8%,87.0%,72 nM,180 nM,80.63%,52.3%,87.0%,82.9%,–
"CN1CCN2c3c(cccc31)[C@@H]1CN(CCCC(=O)c3ccc(F)cc3)CC[C@@H]12 [lumateperone, 4-((6bR,10aS)-3-methyl-2,3,6b,9,10,10a-hexahydro-1H-pyrido[3′,4′: 4,5]pyrrolo[1,2,3-de]quinoxalin-8(7H)-yl)-1-(4-fluorophenyl)-1-butanone]",–,–,–,–,–,–,–,–,–,–,–,–,–,significant and unexpected improvement
